ChEMBL document CHEMBL5712891, “Inhibition of BET bromodomain-dependent XIAP and FLIP expression sensitizes KRAS-mutated NSCLC to pro-apoptotic agents” (Cell Death Dis, 2016)
Calls of active or inactive are those of the source. The calls are words filed in the database; no cut-off is given here.

How the values were obtained:
A549 [1] = experiment: Induction of apoptosis in human A549 cells assessed as late apoptotic cells at 0.5 uM for 24 hrs by annexin V-PI staining based flow cytometric analysis (reference value: 1.2%); format: functional
A549 [2] = experiment: Induction of apoptosis in human A549 cells assessed as viable cells at 2.5 uM for 24 hrs by annexin V-PI staining based flow cytometric analysis (reference value: 97.7%); format: functional; settings: read-out: Activity
A549 [3] = experiment: Induction of apoptosis in human A549 cells assessed as necrotic cells at 2.5 uM for 24 hrs by annexin V-PI staining based flow cytometric analysis (reference value: 0.9%); format: functional
NCI-H1373 [4] = experiment: Induction of apoptosis in human NCI-H1373 cells assessed as necrotic cells at 2.5 uM for 24 hrs by annexin V-PI staining based flow cytometric analysis (reference value: 4.4%); format: functional
NCI-H460 [5] = experiment: Induction of apoptosis in human NCI-H460 cells assessed as late apoptotic cells at 0.5 uM for 24 hrs by annexin V-PI staining based flow cytometric analysis (reference value: 3.7%); format: functional
DV-90 [6] = experiment: Induction of apoptosis in human DV-90 cells assessed as early apoptotic cells at 2.5 uM for 48 hrs by annexin V-PI staining based flow cytometric analysis (reference value: 1.0%)
DV-90 [7] = experiment: Induction of cell cycle arrest in human DV-90 cells assessed as accumulation of cells at G2/M phase at 0.1 uM for 24 hrs by Click-iT EdU Alexa Fluor 647 flow cytometric assay kit analysis (reference value: 25%); format: functional
DV-90 [8] = experiment: Induction of cell cycle arrest in human DV-90 cells assessed as accumulation of cells at G0/G1 phase at 1 uM for 24 hrs by Click-iT EdU Alexa Fluor 647 flow cytometric assay kit analysis (reference value: 45%); format: functional
NCI-H1373 [9] = experiment: Induction of cell cycle arrest in human NCI-H1373 cells assessed as accumulation of cells at G0/G1 phase at 0.25 uM for 24 hrs by Click-iT EdU Alexa Fluor 647 flow cytometric assay kit analysis (reference value: 48%); format: functional
NCI-H460 [10] = experiment: Induction of cell cycle arrest in human NCI-H460 cells assessed as accumulation of cells at G0/G1 phase at 0.5 uM for 24 hrs by Click-iT EdU Alexa Fluor 647 flow cytometric assay kit analysis (reference value: 45%); format: functional
A549 [11] = experiment: Induction of cell cycle arrest in human A549 cells assessed as accumulation of cells at S phase at 1 uM for 24 hrs by Click-iT EdU Alexa Fluor 647 flow cytometric assay kit analysis (reference value: 35%); format: functional
A549 [12] = experiment: Induction of cell cycle arrest in human A549 cells assessed as accumulation of cells at G0/G1 phase at 0.1 uM for 24 hrs by Click-iT EdU Alexa Fluor 647 flow cytometric assay kit analysis (reference value: 61%); format: functional
DV-90 [13] = experiment: Induction of cell cycle arrest in human DV-90 cells assessed as accumulation of cells at G2/M phase at 0.5 uM for 24 hrs by Click-iT EdU Alexa Fluor 647 flow cytometric assay kit analysis (reference value: 24%); format: functional
DV-90 [14] = experiment: Induction of cell cycle arrest in human DV-90 cells assessed as accumulation of cells at G0/G1 phase at 0.1 uM for 24 hrs by Click-iT EdU Alexa Fluor 647 flow cytometric assay kit analysis (reference value: 44%); format: functional
NCI-H1373 [15] = experiment: Induction of cell cycle arrest in human NCI-H1373 cells assessed as accumulation of cells at S phase at 0.5 uM for 24 hrs by Click-iT EdU Alexa Fluor 647 flow cytometric assay kit analysis (reference value: 45%); format: functional
NCI-H1373 [16] = experiment: Induction of cell cycle arrest in human NCI-H1373 cells assessed as accumulation of cells at G0/G1 phase at 0.5 uM for 24 hrs by Click-iT EdU Alexa Fluor 647 flow cytometric assay kit analysis (reference value: 40%); format: functional
NCI-H1373 [17] = experiment: Induction of cell cycle arrest in human NCI-H1373 cells assessed as accumulation of cells at S phase at 0.1 uM for 24 hrs by Click-iT EdU Alexa Fluor 647 flow cytometric assay kit analysis (reference value: 45%); format: functional
DV-90 [18] = experiment: Induction of apoptosis in human DV-90 cells assessed as necrotic cells at 2.5 uM for 24 hrs by annexin V-PI staining based flow cytometric analysis (reference value: 5.4%); format: functional
NCI-H460 [19] = experiment: Induction of apoptosis in human NCI-H460 cells assessed as early apoptotic cells at 2.5 uM for 24 hrs by annexin V-PI staining based flow cytometric analysis (reference value: 0.2%); format: functional
NCI-H460 [20] = experiment: Induction of apoptosis in human NCI-H460 cells assessed as necrotic cells at 2.5 uM for 24 hrs by annexin V-PI staining based flow cytometric analysis (reference value: 2.7%); format: functional
DV-90 [21] = experiment: Downregulation of […] gene in human DV-90 cells after 24 hrs by microarray profiling analysis; format: functional, cell-based
A549 [22] = experiment: Downregulation of c-MYC mRNA expression level in human A549 cells at 0.1 to 1 uM for 24 hrs by qRT-PCR analysis; format: functional, cell-based; settings: dose 0.1-1 µM
NCI-H358 = experiment: Downregulation of c-MYC mRNA expression level in human NCI-H358 cells at 0.1 to 1 uM for 24 hrs by qRT-PCR analysis; format: functional, cell-based; settings: dose 0.1-1 µM
SK-LU-1 = experiment: Downregulation of XIAP mRNA expression level in human SK-LU-1 cells at 0.1 to 1 uM for 24 hrs by qRT-PCR analysis; format: functional, cell-based; settings: dose 0.1-1 µM
NCI-H441 [23] = experiment: Downregulation of XIAP mRNA expression level in human NCI-H441 cells at 0.1 to 1 uM for 24 hrs by qRT-PCR analysis; format: functional, cell-based; settings: dose 0.1-1 µM
NCI-H2030 [24] = experiment: Downregulation of XIAP mRNA expression level in human NCI-H2030 cells at 0.1 to 1 uM for 24 hrs by qRT-PCR analysis; format: functional, cell-based; settings: dose 0.1-1 µM
NCI-H460 [25] = experiment: Downregulation of FLIP mRNA expression level in human NCI-H460 cells at 0.1 to 1 uM for 24 hrs by qRT-PCR analysis; format: functional, cell-based; settings: dose 0.1-1 µM
NCI-H1792 [26] = experiment: Downregulation of XIAP protein expression level in human NCI-H1792 cells at 1 uM for 24 hrs by […] analysis; format: functional, cell-based
NCI-H2030 [27] = experiment: Downregulation of XIAP protein expression level in human NCI-H2030 cells at 1 uM for 24 hrs by […] analysis; format: functional, cell-based
NCI-H1792 [28] = experiment: Downregulation of c-MYC protein expression level in human NCI-H1792 cells at 1 uM for 24 hrs by […] analysis; format: functional, cell-based
NCI-H441 [29] = experiment: Downregulation of c-MYC protein expression level in human NCI-H441 cells at 1 uM for 24 hrs by […] analysis; format: functional, cell-based
NCI-H1373 [30] = experiment: Induction of TRAIL dependent apoptosis in human NCI-H1373 cells assessed as viable cells at 1 uM by annexin V-PI staining based flow cytometric analysis (reference value: 87.6%); format: functional; settings: read-out: Activity
NCI-H1373 [31] = experiment: Induction of TRAIL dependent apoptosis in human NCI-H1373 cells assessed as necrotic cells at 1 uM in presence of […] by annexin V-PI staining based flow cytometric analysis (reference value: 3.6%); format: functional

Cc1sc2c(c1C)C(c1ccc(Cl)cc1)=N[C@@H](CC(=O)Nc1ccc(O)cc1)c1nnc(C)n1-2 [BIRABRESIB]
Activity (A549 [1]): 1.1% | viability at 2.5 µM (A549 [2]): 97.3% | Activity (A549 [3]): 1.1% | Activity (NCI-H1373 [4]): 21.4% | Activity (NCI-H460 [5]): 4.6% | Activity (DV-90 [6]): 2.6%

CCNC(=O)C[C@@H]1N=C(c2ccc(Cl)cc2)c2cc(OC)ccc2-n2c(C)nnc21 [MOLIBRESIB]
Activity (DV-90 [7]): 31% | Activity (DV-90 [8]): 50% | Activity (NCI-H1373 [9]): 65% | Activity (NCI-H460 [10]): 51%

Cc1sc2c(c1C)C(c1ccc(Cl)cc1)=N[C@@H](CC(=O)OC(C)(C)C)c1nnc(C)n1-2
Activity (A549 [11]): 32% | Activity (A549 [12]): 61% | Activity (DV-90 [13]): 30% | Activity (DV-90 [14]): 41% | Activity (NCI-H1373 [15]): 12% | Activity (NCI-H1373 [16]): 63% | Activity (NCI-H1373 [17]): 36% | Activity (DV-90 [18]): 31% | Activity (NCI-H460 [19]): 0.4% | Activity (NCI-H460 [20]): 3.7% | Activity (DV-90 [21]): Active | Activity (A549 [22]): Active | Activity (NCI-H358): Active | Activity (SK-LU-1): Active | Activity (NCI-H441 [23]): Active | Activity (NCI-H2030 [24]): Active | Activity (NCI-H460 [25]): Active | Activity (NCI-H1792 [26]): Active | Activity (NCI-H2030 [27]): Active | Activity (NCI-H1792 [28]): Active | Activity (NCI-H441 [29]): Active | viability at 1 µM (NCI-H1373 [30]): 64.4% | Activity (NCI-H1373 [31]): 40.2%
